{
  "source": "patent US20260248799A1",
  "about": "“COMBINATIONS OF RETINALDEHYDE DEHYDROGENASE 1 (RALDH1) INHIBITORS AND IMMUNOSTIMULATORS AND METHODS USING SAME” (The Trustees of the University of Pennsylvania, priority 2023, published 2026)",
  "key": {"[1]": {"test_system": "Huh7 tumors", "assay": "Huh7 tumors in NU/J mice", "assay_type": "in vivo, mouse", "experimental": "FIGS. 26A-26H: Raldh1-INH suppresses HCC growth by altering macrophage functions. FIG. 26A: Huh7 tumor-bearing NU/J mice were treated with C86 (i.p, 10 mg/kg) every day starting when tumor size was approximately 50 mm^3. Tumor volume was measured every 2 days. […] Three or more independent experiments were performed with at least three replicates per experimental group. Unpaired t test, two-tailed. FIG. 26B: AldeRed assay at endpoint on Huh7 tumor treated as described in FIG. 26A. […] Three or more independent experiments were performed with at least three replicates per experimental group. Unpaired t test, two-tailed. FIG. 26C: Huh7 tumor-bearing nude mice were treated with different dose of C86 every day. Tumor volume was measured every 2-3 days. […] Two independent experiments were performed with at least three replicates per experimental group. Unpaired t test, two-tailed. FIG. 26D: Body weight measured every 3-5 days for the experiment outlined in FIG. 26C. FIG. 26E: Parental Huh7 or RALDH1-KO Huh7 cells were implanted subcutaneously into NU/J mice and treated with C86 (i.p, 10 mg/kg) or vehicle (control) every day. […] Three or more independent experiments were performed with at least three replicates per experimental group. Unpaired t test, two-tailed. FIG. 26F: Huh7 tumor-bearing NU/J mice were treated with clodronate liposomes (CloLipo) and/or C86. […] Two independent experiments were performed with at least three replicates per experimental group. Unpaired t test, two-tailed. FIG. 26G: Murine Hepa 1-6 tumors were implanted subcutaneously into C57BL6/J WT mice or LyMCre:RosadnRAR mice. Expression of the dominant negative RAR in myeloid cells slows tumor growth. Two independent experiments were performed with at least three replicates per experimental group. Unpaired t test, two-tailed. FIG. 26H: Huh7 cells were implanted subcutaneously into NU/J mice. When tumor size reached about 50 mm^3, mice were intraperitoneally injected vehicle (control) or C86 daily with or without BMS493 treatment intratumorally every 3 days. BMS493 and C86 suppress tumor growth with the combination showing higher suppression than monotherapy. *, P<0.05; **, P<0.01; ***, P<0.001; n.s., not significant.\n(§1) Cultured Huh7, Huh1, Hepa 1-6, Hep55, and FS (as indicated in figure legends) tumor cells were detached using 0.25% trypsin (Gibco, catalog #25200056), washed once with 1×PBS, and counted before implantation. 3~6×10^6 tumor cells were implanted subcutaneously (s.c.) into shaved flanks of recipient mice. Tumor dimensions were measured using a caliper starting at the day indicated in the accompanying figure legend and every two to three days thereafter; volume was calculated by using formula Length*Width^2/2. Tumor volumes of 2,000 mm^3, tumor length of 2 cm or tumor ulceration were used as endpoints for survival analyses.\nCompound-86, 97 and 99 powder was dissolved in 20% HPβCD saline (2-Hydroxypropyl)-[…]). Drug was administered i.p. or p.o. starting when tumor volume reached 50-150 mm^3 and repeated every day."}, "[2]": {"test_system": "Hepa 1-6 tumors", "assay": "Hepa 1-6 tumors in mice", "assay_type": "in vivo, mouse", "conditions": "Hepa 1-6 in C57BL6/J mice treated with anti-CD3; i.p., 20 mg/kg every day", "experimental": "FIGS. 28A-28G: C99 inhibits murine RALDH1 and suppresses murine HCC growth. FIG. 28A: AldeRed assay was performed on Hepa1-6 (murine HCC, left graph) and SNU398 (human HCC, right graph) cells with or without different concentration of C99 (x-axis). Shown is the percentage of AldeRed-positive cells (y-axis) after 24 hours exposure to C99. Murine RALDH1 is sensitive to C99. FIG. 28B: Hepa1-6 cells were treated with different concentrations of C99 in vitro and the number of viable cells were counted at different time points. […] FIG. 28C: C57BL6/J mice were implanted subcutaneously with Hepa1-6 cells and the tumor-bearing mice. To prevent spontaneous rejection of this cell line, mice were treated with anti-CD3. Once the tumors reached around 50 mm^3 size, mice were treated with C86 or C99 (i.p., 20 mg/kg) every day. […] C99, but not C86, suppresses murine HCC growth. Two independent experiments were performed with at least three replicates per experimental group. Unpaired t test, two-tailed. FIG. 28D: Tumors in (FIG. 28C) were harvested at endpoint, single-cell suspension generated, and AldeRed assay was performed along with surface staining with immune cell markers. Shown is the percentage of AldeRed-positive cells in nonleukocytes (CD45 negative, mostly tumor cells) under the different treatment conditions. Two independent experiments were performed with at least three replicates per experimental group. Unpaired t test, two-tailed. FIG. 28E: FCS base frequency of Macrophages (F4/80^+ cells) within CD45^+ leukocytes in tumor tissues from experiment outlined in (FIGS. 28C-28D). Two independent experiments were performed with at least three replicates per experimental group. Unpaired t test, two-tailed. FIG. 28F: Hepa1-6 tumor-bearing NU/J mice were treated with chlodronate liposomes (CloLipo) and/or C86/C99. CloLipo treatment suppresses tumor growth and renders tumors insensitive to C99. Two independent experiments were performed with at least three replicates per experimental group. Unpaired t test, two-tailed. FIG. 28G: The murine fibrosarcoma (FS) cell line was implanted subcutaneously into C57BL6/J mice. Mice were treated with 25 mg/kg of C-99 or vehicle everyday starting one day after tumor cell transplantation. *, P<0.05; **, P<0.01; ***, P<0.001; ns, not significant.\nas §1\nTo deplete T cells, 200 μg of mouse CD3-specific antibody (clone 17A2) was administered i.p. starting three days before tumor implantation and repeated every three to four days until mouse sacrifice. To deplete macrophages, 200 μL of clodronate liposome (CloLipo) or PBS-liposome (CtrlLipo) (both Liposoma) was administered i.p. starting three days prior to tumor implantation and repeated every four days until mouse sacrifice. Macrophage depletion efficacy in spleen and within tumors was confirmed by flow cytometry using canonical macrophage marker F4/80. […]"}, "[3]": {"test_system": "Calcium Channel L-Type, Benzothiazepine", "assay": "Safetyscreen: Ca channel L-type, benzothiazepine", "assay_type": "binding, rat", "conditions": "10 μM"}, "[4]": {"biological_target": "T1, GABABIA (Homo sapiens, UniProt Q9UBS5)", "T1 construct": "purchased Eurofins Cereps Panlabs", "T1 sequence (Q9UBS5 15-961 limits assumed)": "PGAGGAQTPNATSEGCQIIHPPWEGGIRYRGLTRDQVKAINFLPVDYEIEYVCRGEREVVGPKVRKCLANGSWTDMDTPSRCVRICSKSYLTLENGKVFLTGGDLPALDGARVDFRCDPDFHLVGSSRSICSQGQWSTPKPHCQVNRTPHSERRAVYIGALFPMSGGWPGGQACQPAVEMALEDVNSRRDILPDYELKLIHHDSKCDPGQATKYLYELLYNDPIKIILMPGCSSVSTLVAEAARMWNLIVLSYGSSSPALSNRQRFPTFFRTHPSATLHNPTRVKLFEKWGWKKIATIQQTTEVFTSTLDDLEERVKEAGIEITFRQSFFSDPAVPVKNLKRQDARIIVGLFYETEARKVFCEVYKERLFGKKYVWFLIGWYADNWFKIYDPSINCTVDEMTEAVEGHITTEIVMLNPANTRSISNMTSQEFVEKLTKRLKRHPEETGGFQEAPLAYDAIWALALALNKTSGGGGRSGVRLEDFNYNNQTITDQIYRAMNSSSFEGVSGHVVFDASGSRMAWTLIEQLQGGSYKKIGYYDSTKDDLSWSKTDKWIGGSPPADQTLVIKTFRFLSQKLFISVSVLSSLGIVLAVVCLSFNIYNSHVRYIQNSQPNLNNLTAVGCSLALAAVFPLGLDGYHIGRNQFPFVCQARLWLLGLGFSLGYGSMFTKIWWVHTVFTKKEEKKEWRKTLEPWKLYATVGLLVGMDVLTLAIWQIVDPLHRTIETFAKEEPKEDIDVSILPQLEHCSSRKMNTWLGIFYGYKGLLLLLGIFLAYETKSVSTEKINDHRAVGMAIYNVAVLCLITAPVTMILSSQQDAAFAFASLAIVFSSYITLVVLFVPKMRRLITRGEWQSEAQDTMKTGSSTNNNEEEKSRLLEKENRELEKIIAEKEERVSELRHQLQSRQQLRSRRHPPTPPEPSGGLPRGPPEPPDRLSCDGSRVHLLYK", "T1 sequence (O75899 42-941 partner)": "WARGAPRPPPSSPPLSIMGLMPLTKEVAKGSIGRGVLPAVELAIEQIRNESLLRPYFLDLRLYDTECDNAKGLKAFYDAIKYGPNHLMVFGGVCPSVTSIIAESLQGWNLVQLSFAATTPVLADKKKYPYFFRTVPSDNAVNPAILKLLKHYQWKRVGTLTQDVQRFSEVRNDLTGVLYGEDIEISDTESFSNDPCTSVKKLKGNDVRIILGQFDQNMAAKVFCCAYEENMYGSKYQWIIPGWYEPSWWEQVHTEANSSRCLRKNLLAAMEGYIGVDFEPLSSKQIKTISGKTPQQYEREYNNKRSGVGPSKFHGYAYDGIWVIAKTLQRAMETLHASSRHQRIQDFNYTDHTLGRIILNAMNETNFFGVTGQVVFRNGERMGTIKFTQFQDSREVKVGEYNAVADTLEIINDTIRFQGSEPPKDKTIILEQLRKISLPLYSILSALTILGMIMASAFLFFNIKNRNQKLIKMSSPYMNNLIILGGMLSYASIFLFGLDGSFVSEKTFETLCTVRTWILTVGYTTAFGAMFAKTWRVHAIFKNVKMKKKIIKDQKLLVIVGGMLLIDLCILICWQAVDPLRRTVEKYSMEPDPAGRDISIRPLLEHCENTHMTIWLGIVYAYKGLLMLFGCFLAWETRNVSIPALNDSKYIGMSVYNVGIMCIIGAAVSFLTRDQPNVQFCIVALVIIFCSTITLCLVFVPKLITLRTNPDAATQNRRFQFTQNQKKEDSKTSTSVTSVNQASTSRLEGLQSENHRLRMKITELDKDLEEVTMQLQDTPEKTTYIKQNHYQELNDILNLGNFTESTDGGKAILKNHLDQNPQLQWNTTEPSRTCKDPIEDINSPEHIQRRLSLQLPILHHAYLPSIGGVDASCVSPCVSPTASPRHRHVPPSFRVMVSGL", "assay": "Safetyscreen: GABABIA", "assay_type": "binding", "conditions": "read-out: % Inh. GABABIA"}, "[5]": {"test_system": "Glutamate, NMDA, Agonism", "assay": "Safetyscreen: NMDA, Agonism", "assay_type": "binding, rat", "conditions": "10 μM"}, "[6]": {"biological_target": "T2, Transporter, Serotonin (5-Hydroxytryptamine) (SERT) (Homo sapiens, UniProt P31645)", "T2 construct": "purchased Eurofins Cereps Panlabs", "T2 sequence (P31645 whole entry)": "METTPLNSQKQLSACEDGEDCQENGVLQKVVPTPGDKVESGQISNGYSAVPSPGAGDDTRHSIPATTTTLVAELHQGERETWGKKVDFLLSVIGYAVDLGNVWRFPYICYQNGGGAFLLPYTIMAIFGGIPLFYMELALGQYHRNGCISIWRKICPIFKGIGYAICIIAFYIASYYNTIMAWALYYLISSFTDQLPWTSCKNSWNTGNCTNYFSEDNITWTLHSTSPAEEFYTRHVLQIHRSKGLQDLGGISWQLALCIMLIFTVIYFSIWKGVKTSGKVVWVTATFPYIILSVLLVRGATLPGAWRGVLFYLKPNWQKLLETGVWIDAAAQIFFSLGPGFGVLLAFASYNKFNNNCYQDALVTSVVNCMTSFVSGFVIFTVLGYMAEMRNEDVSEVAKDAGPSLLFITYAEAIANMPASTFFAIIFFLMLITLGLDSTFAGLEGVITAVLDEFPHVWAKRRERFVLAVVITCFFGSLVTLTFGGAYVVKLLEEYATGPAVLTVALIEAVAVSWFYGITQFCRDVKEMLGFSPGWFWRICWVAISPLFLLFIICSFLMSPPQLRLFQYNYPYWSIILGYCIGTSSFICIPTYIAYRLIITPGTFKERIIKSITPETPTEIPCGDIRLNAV", "assay": "Safetyscreen: SERT", "assay_type": "binding", "conditions": "read-out: % Inh. Transporter, Serotonin (5-Hydroxytryptamine) (SERT)"}, "[7]": {"conditions": "Huh7 tumor-bearing nude mice, once daily dosing"}},
  "data": [
    {"smiles": "CS(=O)(=O)N1CCN(C(=O)c2cnc3ccc(F)cc3c2N2CCC(C#N)(c3ccccc3)CC2)CC1", "note": "[Compound C-86, 1-(6-fluoro-3-(4-(methylsulfonyl)piperazine-1-carbonyl)quinolin-4-yl)-4-phenylpiperidine-4-carbonitrile]", "values": [
      {"measurement": "tumor mass and volume", "setting": "[1]; Huh7, C-86 versus C-97 (FIGS. 17A-17B)", "value": "significant reduction in tumor mass and volume"},
      {"measurement": "dose dependence of effect on tumor volume and tumor mass", "setting": "[1]; Huh7, FIGS. 13A-13B", "value": "dose-dependent effect"},
      {"measurement": "tumor suppression in the absence of TAMs", "setting": "[1]; Huh7, TAM depletion with CloLipo", "value": "did not further suppress tumors"},
      {"measurement": "tumor mass and volume", "setting": "[1]; Huh7, intraperitoneal administration, compared to a control (FIGS. 12B-12C)", "value": "significant reduction in tumor mass and volume"},
      {"measurement": "tumor mass", "setting": "[1]; Huh7, macrophage depletion study (FIG. 14B)", "value": "significant reduction in tumor mass"},
      {"measurement": "dose at which weight loss was observed", "setting": "[1]; [7]", "value": 40, "unit": "mg/kg"},
      {"measurement": "dose with tumor suppressive effects", "setting": "[1]; [7]", "value": "> 10", "unit": "mg/kg"},
      {"measurement": "RALDH activity in tumor cells (AldeRed at endpoint)", "setting": "[1]; Huh7 tumors, CD45− cells", "value": "reduced RADLH activity"},
      {"measurement": "response of RALDH1-KO HCC tumors to therapy", "setting": "[1]; RALDH1-KO Huh7, i.p, 10 mg/kg every day", "value": "did not respond"},
      {"measurement": "tumor inhibition", "setting": "[1]; huh7 in immunodeficient mice, i.p, 10 mg/kg every day", "value": "significant tumor inhibition"},
      {"measurement": "tumor growth in vivo", "setting": "[2]", "value": "did not suppress"},
      {"measurement": "% Inh. Calcium Channel L-Type, Benzothiazepine", "setting": "[3]", "value": "−3", "unit": "%"},
      {"measurement": "inhibition at 10 µM", "setting": "[4]", "value": 7, "unit": "%"},
      {"measurement": "% Inh. Glutamate, NMDA, Agonism", "setting": "[5]", "value": 2, "unit": "%"},
      {"measurement": "inhibition at 10 µM", "setting": "[6]", "value": 17, "unit": "%"}
    ]}
  ]
}
